Where “and” joins values, the source holds several entries; their conditions need not be identical. Equal values may be shown once.
Test system: coronary patients
Experiment: SPECT imaging study, summed difference scores (Example 2, Phase II)
Type: in vivo, human
Set-up: key: SDS = SSS − SRS; summed 17-segment scores, each segment 0–4
Settings: Series I sequential: SC = dipyridamole 40 μg/kg bolus then adenosine 70 μg/kg/min 4 min; Adenoscan 140 μg/kg/min; 10 patients
From the text: The study was a mono-center, single-blind, 2-arm, cross-over trial.
Only those patients in whom an ischemic zone was detected were declared eligible for the second test, and were enrolled in the study if other inclusion criteria were satisfied.
SPECT images were acquired as per the standard approach performed the preceding week.
Since thallium is currently deemed the best isotope to test myocardial viability at rest, and sestamibi the best isotope to detect myocardial defects under stress conditions, a dual isotope myocardial scintigraphy technique was used for this study. The isotope was injected after a 3 minute infusion with Adenoscan or after a 2.5 minute infusion with the combination. […]
Randomization of SPECT images, and their analysis by two blinded readers, took place every 10 patients. Anonymous and randomized images were assessed using the standard 17-segment model and the semi-quantitative visual score method on a 5-point scale (from 0 to 4). An additional totally computerized quantitative method was performed using the validated CardioGam software (Segami Corp.). All images were interpreted and quantified automatically by the software calculation package. […]
Summed stress scores (with Adenosine or with Adenosoft) were defined as SSS, summed rest scores (Thallium) as SRS and summed difference scores as SDS=SSS-SRS. […] If >2, images were read again by a third independent expert. […]

Question: How did the “SDS (summed difference scores), individual patients” value turn out when `Nc1ncnc2c1ncn2[C@@H]1O[C@H](CO)[C@@H](O)[C@H]1O` [adenosine] was run?
Answer: Its value is 5 (5×) and 4 (2×) and 14 and 13 and 7.

Source: US20090185973A1, “METHODS, COMPOSITIONS, UNIT DOSAGE FORMS, AND KITS FOR PHARMACOLOGIC STRESS TESTING WITH REDUCED SIDE EFFECTS” (ADENOBIO N.V., priority 2008, published 2009)
